Reference: patent US11918000B2, “Methods for inducing resistance to virus in a plant, priming a plant to resist viruses, decreasing virus accumulation, or increasing PR1 expression in a plant” (Academia Sinica, priority 2019, dated 2024)

Legend:
[1] = tested on: TMV tagged with green fluorescence protein (TMV-GFP); assay: TMV-GFP infection of Nicotiana benthamiana (fluorescent infection foci); format: in vivo; conditions: N. benthamiana
Experimental: (§1) Plants were grown in a growth chamber with 10,000 lux fluorescent light and a 16-h light/8-h dark cycle. N. glutinosa (6-7 weeks old, 8-10 leaf stage), N. benthamiana (3-4 weeks old, 5-6 leaf stage) and Brassica juncea (14 days old, 2-3 true-leaf stage) were used for treatment and/or inoculation. For virus inoculation, plants were dusted with 600-grit silicon carbide powder (Sigma-Aldrich, St. Louis, Mo., USA) and mechanically inoculated. Virus inoculum was prepared with 100 ml of 0.1 M potassium phosphate (KP) buffer (61.5% of 0.1 M K2HPO4 and 38.5% 0.1 M KH2PO4, pH 7.0) mixed with 0.1 g of lyophilized leaves of plants infected with Tobacco mosaic virus (TMV) (FIGS. 1, 4A-E, 8 and 9; FIG. 10, 11, 12, 14 and 15; Table 1), or TMV tagged with green fluorescence protein (TMV-GFP) (FIG. 5) (Rabindran, S., and Dawson, W.O. 2001. Assessment of recombinants that arise from the use of a TMV-based transient expression vector. Virology 284:182-189). Different concentrations of TMV purified particle inoculum was diluted with 0.1 M potassium phosphate (KP) buffer (61.5% of 0.1 M K2HPO4 and 38.5% 0.1 M KH2PO4, pH 7.0) (FIGS. 2, 3, and 4F; Table 2). Turnip mosaic virus (TuMV) inoculum was prepared with 0.1 g of fresh leaves from plants infected with TuMV ground with 10 ml of 0.1 M sodium phosphate buffer (0.1 M NaH2PO4, 0.1 M Na2HPO4 and 0.5% Na2SO3, pH 7.4). The severity of TMV or TuMV symptom of infected plants were scored based on external phenotype (FIG. 15). Transmission electron microscope (Philips Electronic Instruments, Mahwah, N.J.) was used to examine TMV particles of different inoculums.
(§2) Whole plants were sprayed with 0.4 ml H2O, VB, culture filtrate derived from microorganism or 5 mM salicylic acid (SA, Sigma-Aldrich) for total of three times with a 24-h interval between each spray. Twenty-four hours after the final treatment, plants were rubbed with the virus inoculum.
Photographs of TMV-GFP fluorescent infection foci in N. benthamiana leaves were taken under UV light at 5 and 7 days post-inoculation (dpi), and the level of fluorescence as well as the areas of fluorescent infection sites in each leaf were measured by using ImageJ v1.47. All imaging was conducted under identical illumination and exposure conditions to allow for comparisons. Mean values of areas of all infection foci per treatment were calculated.
To analyze which virus infection steps are affected in F8-culture filtrate-treated plants, we used TMV tagged with green fluorescence protein (GFP) to inoculate N. benthamiana and monitor the infection of TMV. […] To compare TMV-GFP accumulation in each foci, we used a puncher to collect GFP foci under UV light and used qRT-PCR to quantify the TMV-GFP expression. […]

[2] = tested on: Tobacco mosaic virus (TMV) particle; assay: Infection rate of purified TMV particle on Nicotiana benthamiana; format: in vivo; conditions: Table 2, N. benthamiana, 7 dpi, RT-PCR, SA 5 mM
Experimental: as §1
Leaves of TMV-infected N. benthamiana were harvested approximately 5 days after inoculation. The initial purification of TMV virus particles followed the protocol as described by Gooding and Hebert (1967) with modifications. Briefly, polyethylene glycol with molecular weight 8000 (PEG 8000) (Sigma-Aldrich) was used instead of PEG 6000. In addition, the semi-purified preparation was submitted to linear density sucrose gradient (0-18%), and ultracentrifuged at 228,000×g for 1.5 h. The light scattering region was collected and diluted with 100 ml of suspension buffer (35 mM Na2HPO4, 15 mM NaH2PO4 and 0.05% 2-mercaptoethanol, pH7.2). NaCl (0.4 g) and PEG 8000 (4 g) were added and stirred for at least 1 h on ice, then centrifuged at 9000×g for 15 min at 4° C. The pellets were re-suspended in 1 ml of suspension buffer. The concentration of the purified TMV suspension was determined (A260 nm=[…] for 1 mg/mL of TMV) with a Nanodrop (ND-1000, Thermo Fisher Scientific, MA, USA).
as §2
In addition to using inoculum made from lyophilized leaves of TMV infected N. benthamiana, we also used different concentrations (1 μg/ml, 10 μg/ml and 50 μg/ml) of purified TMV particles as inoculum to inoculate N. glutinosa and N. benthamiana pretreated with H2O, SA, VB, or F8-culture filtrate (FIG. 2, FIG. 3). […] The infection rate of TMV on N. benthamiana was also detected by use of qRT-PCR (Table 2).

[3] = tested on: Tobacco mosaic virus (TMV); assay: Infection rate of TMV on Nicotiana benthamiana, inoculum from lyophilized infected leaves, RT-PCR detection; format: in vivo; conditions: N. benthamiana
Experimental: as §1, §2
Besides using N. glutinosa for our initial screening, we also used N. benthamiana, a host that is highly susceptible to TMV, for resistance assay. N. benthamiana was pretreated with H2O, SA, VB, F2- or F8-culture filtrate as for pretreatment of N. glutinosa. All treated plants were inoculated with TMV inoculum made from lyophilized leaves of TMV infected N. benthamiana. […] With RT-PCR to detect TMV on all treated plants, the infection rate was much reduced with F8-culture filtrate than H2O, SA, VB or F2-culture filtrate pretreatment (Table 1). In our repeat experiments, the infection rate of TMV-inoculated plants with F8-culture filtrate pretreatment even decreased to 0% (Table 1). […] We prepared at least 7 different batches of F8-culture filtrate, and the ability to induce resistance against TMV was consistent between different batches (Table 1).

PR-1 = assay: Relative expression of PR-1 by qRT-PCR; format: in vivo, Nicotiana benthamiana; conditions: N. benthamiana, no TMV, 24 hpt
Excerpt: Total RNA was isolated by use of Trizol (Invitrogen, Bethesda, Md.) according to the manufacturer's instruction. Residual DNA was removed by using the TURBO DNA-free kit (Ambion, Austin Tex., USA). cDNA was synthesized by using the PrimeScript RT-PCR Kit (Takara Bio, Shiga, Japan). Quantitative RT-PCR (qRT-PCR) involved the SYBR protocol (Life Technologies) and the ABI 7100 real-time PCR system (Applied Biosystems, Carlsbad, Calif.). For quantitative analysis, actin was used as an input control. Relative fold change in mRNA expression was determined by calculating 2^−ΔΔCt. The sequences of primers used are in Table S1.
We collected both the local and upper un-treated (systemic) leaves at 24 h post-treatment (hpt) to analyze the expression of the PR-1 gene (a SAR marker gene) (Zheng et al., 2015). PR-1 gene expression was detected in SA- and VB- but not F8-culture filtrate-treated local leaves (FIG. 4C). […] In addition, we collected leaves from plants with whole plants pretreated with H2O, SA, VB or F8-culture filtrate. Consistently, PR-1 gene induction was detected in leaves of whole plants pretreated with SA and VB but not whole plants pretreated with F8-culture filtrate at 24 hpt (FIG. 4E).
To analyze how F8-polysaccharide induces plant viral resistance, we measured the expression of SA-, JA- and ET-responsive immune marker genes in H2O- and F8-polysaccharide-treated plants (Cortes-Barco et al., 2010; Milling et al., 2011; Zhu et al., 2014). We first confirmed the induction of marker genes induced by SA (PR-1 and PR-2), JA (PDF-1.2 and PR-4), and ET (Osm and EREBP) in N. benthamiana (FIG. 14A). Plants were pretreated with H2O and F8-polysacccharide for total of three times with a 24-h interval between each spray as described previously, then leaves were collected from one set of individual plants at 0, 12, 24, 36, 48, 72, and 96 hpt. […] We detected the accumulation of TMV and the expression of SA-, JA- and ET-responsive immune marker genes (FIG. 9A-D, FIGS. S5C and D). […]

[4] = tested on: Tobacco mosaic virus (TMV); assay: Symptoms / disease index induced by TMV in Nicotiana benthamiana; format: in vivo; conditions: N. benthamiana; systemic protection test; 7 dpi
Experimental: FIG. 15A and FIG. 15B show disease index of N. benthamiana inoculated with TMV and Brassica juncea inoculated with TuMV. (FIG. 15A) N. benthamiana were inoculated with TMV. The disease index was classified into 4 levels according to the degree of yellowing, stunting and wilting at 7 dpi. (FIG. 15B) Brassica juncea were inoculated with TuMV. The disease index was classified into 3 levels according to the degree of leaf mosaic and stunting at 13 dpi.
Plants were grown in a growth chamber with 10,000 lux fluorescent light and a 16-h light/8-h dark cycle. N. glutinosa (6-7 weeks old, 8-10 leaf stage), N. benthamiana (3-4 weeks old, 5-6 leaf stage) and Brassica juncea (14 days old, 2-3 true-leaf stage) were used for treatment and/or inoculation. […] Virus inoculum was prepared with 100 ml of 0.1 M potassium phosphate (KP) buffer (61.5% of 0.1 M K2HPO4 and 38.5% 0.1 M KH2PO4, pH 7.0) mixed with 0.1 g of lyophilized leaves of plants infected with Tobacco mosaic virus (TMV) (FIGS. 1, 4A-E, 8 and 9; FIG. 10, 11, 12, 14 and 15; Table 1), or TMV tagged with green fluorescence protein (TMV-GFP) (FIG. 5) (Rabindran, S., and Dawson, W.O. 2001. Assessment of recombinants that arise from the use of a TMV-based transient expression vector. Virology 284:182-189). […] The severity of TMV or TuMV symptom of infected plants were scored based on external phenotype (FIG. 15). […]

[5] = Table 1, lyophilized leaf inoculum, 7 dpi, RT-PCR, SA 5 mM
[6] = Table S3, fractions derived from F8-culture filtrate, 7 dpi, RT-PCR

What does the source list for O=C(O)c1ccccc1O [SA, salicylic acid]?
number of initial TMV-GFP infection foci ([1]; 5 dpi): reduced; mean TMV accumulation per foci ([1]; qRT-PCR of punched GFP foci): similar; infection rate of TMV-GFP: number of plants exhibiting green fluorescence under UV illumination to total TMV-GFP inoculated plants, Exp. 1 ([1]; Table S2, 7 dpi, SA 5 mM): 5/5; infection rate of TMV-GFP: number of plants exhibiting green fluorescence under UV illumination to total TMV-GFP inoculated plants, Exp. 2 ([1]; Table S2, 7 dpi, SA 5 mM): 4/6; infection rate of TMV particle: number of plants detected with TMV to total inoculated plants, Exp. 1, 1 μg/ml ([2]; TMV particle 1 μg/ml): 6/6; infection rate of TMV particle: number of plants detected with TMV to total inoculated plants, Exp. 2, 1 μg/ml ([2]; TMV particle 1 μg/ml): 6/6; infection rate of TMV particle: number of plants detected with TMV to total inoculated plants, Exp. 3, 1 μg/ml ([2]; TMV particle 1 μg/ml): 15/15; infection rate of TMV particle: number of plants detected with TMV to total inoculated plants, Exp. 1, 10 μg/ml ([2]; TMV particle 10 μg/ml): 6/6; infection rate of TMV particle: number of plants detected with TMV to total inoculated plants, Exp. 1, 50 μg/ml ([2]; TMV particle 50 μg/ml): 6/6; infection rate of TMV-inoculated plants ([3]; pretreatment before TMV inoculation): 100%; infection rate of TMV: number of plants detected with TMV to total TMV inoculated plants, Exp. 2 [3, 5]: 5/5; infection rate of TMV: number of plants detected with TMV to total TMV inoculated plants, Exp. 3 [3, 5]: 4/5; infection rate of TMV: number of plants detected with TMV to total TMV inoculated plants, Exp. 4 [3, 5]: 5/5; infection rate of TMV: number of plants detected with TMV to total TMV inoculated plants, Exp. 5 [3, 5]: 5/5; infection rate of TMV: number of plants detected with TMV to total TMV inoculated plants, Exp. 6 [3, 5]: 5/5; infection rate of TMV: number of plants detected with TMV to total TMV inoculated plants, Exp. 7 [3, 5]: 5/5; infection rate of TMV: number of plants detected with TMV to total TMV inoculated plants, Exp. 8 [3, 5]: 5/5; infection rate of TMV: number of plants detected with TMV to total TMV inoculated plants, Exp. 1 ([3]; Table 1, three sprays at 24-h intervals, inoculum from lyophilized TMV-inoculated leaves, 7 dpi, RT-PCR, SA 5 mM): 5/5; infection rate of TMV: number of plants detected with TMV to total TMV inoculated plants, Total ([3]; Table 1, sum of Exp. 1-8, 7 dpi, RT-PCR): 39/40; infection rate of TMV: number of plants detected with TMV to total TMV inoculated plants, Exp. 1 [3, 6]: 5/5; infection rate of TMV: number of plants detected with TMV to total TMV inoculated plants, Exp. 2 [3, 6]: 5/5; infection rate of TMV: number of plants detected with TMV to total TMV inoculated plants, Exp. 3 [3, 6]: 5/5; infection rate of TMV: number of plants detected with TMV to total TMV inoculated plants, Total ([3]; Table S3, sum of Exp. 1-3, 7 dpi, RT-PCR): 15/15; PR-1 gene expression in treated local leaves (PR-1; local leaves pretreated): detected; PR-1 gene expression on systemic (upper untreated) leaves (PR-1; local leaves pretreated): increased PR-1 gene expression; PR-1 gene induction in leaves of whole plants pretreated (PR-1; whole plant pretreated): detected; viral symptoms with pretreatment of only local (lower) leaves and TMV inoculation of upper untreated leaves [4]: severe viral symptoms
